According to patent US20260226056A1, “SUBSTITUTED 1H-PYRAZOLE-4-CARBOXAMIDES AS SARM1 INHIBITORS” (DISARM THERAPEUTICS, INC., priority 2023, published 2026):

Target: T1, hSARM1 (Homo sapiens, UniProt Q6SZW1)
T1 construct: This assay makes use of full length SARM1, which encompasses the ARM, SAM and TIR domains; made in house; host or cells: NRK1-HEK293T cells (transient transfection; cleared lysate used as enzyme)
T1 sequence (Q6SZW1 28-724): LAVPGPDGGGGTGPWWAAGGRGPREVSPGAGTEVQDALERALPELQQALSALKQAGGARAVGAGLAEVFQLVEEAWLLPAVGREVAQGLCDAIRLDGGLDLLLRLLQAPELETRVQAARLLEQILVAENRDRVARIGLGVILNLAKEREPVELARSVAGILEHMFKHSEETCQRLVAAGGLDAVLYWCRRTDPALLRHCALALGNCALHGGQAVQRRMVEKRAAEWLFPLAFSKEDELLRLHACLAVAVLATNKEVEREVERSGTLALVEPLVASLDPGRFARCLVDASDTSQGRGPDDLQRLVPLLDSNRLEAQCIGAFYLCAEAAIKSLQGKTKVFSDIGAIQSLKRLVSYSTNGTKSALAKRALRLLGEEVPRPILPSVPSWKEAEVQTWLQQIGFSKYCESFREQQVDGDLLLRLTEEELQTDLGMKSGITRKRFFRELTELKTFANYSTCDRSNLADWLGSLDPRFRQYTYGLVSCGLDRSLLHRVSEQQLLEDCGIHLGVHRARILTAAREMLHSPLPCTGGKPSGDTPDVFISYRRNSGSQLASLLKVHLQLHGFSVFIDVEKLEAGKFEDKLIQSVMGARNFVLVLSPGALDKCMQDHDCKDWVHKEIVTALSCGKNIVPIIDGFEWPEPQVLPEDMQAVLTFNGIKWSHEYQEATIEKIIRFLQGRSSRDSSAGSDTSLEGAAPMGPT
Assay: ARM-SAM-TIR SARM1 IC50 Assay (NADase activity, NAD+ cleavage, RapidFire MS)
Type: biochemical
Details: ARM-SAM-TIR lysate 5 μg/mL, 2 hrs. pre-incubation with compound, 5 μM NAD+, 2 hrs. incubation
Description: This describes an assay of ARM-SAM-TIR NADase activity and use of this assay to measure the efficacy of compounds of the present invention to block SARM1 mediated NAD+ cleavage. This assay was optimized in such a way as to characterize the efficacy of the compounds of the present invention to inhibit SARM1 activity and to calculate an IC50 value for each compound. This assay makes use of full length SARM1, which encompasses the ARM, SAM and TIR domains.
NRK1-HEK293T cells were seeded onto 150 cm^2 plates at 20×10^6 cells per plate. The next day, the cells were transfected with 15 μg ARM-SAM-TIR expression plasmid (SEQ ID NO: 1 as disclosed in WO 2019/236879, Pages 77-81; Paragraph) [0310]).
The cultures were supplemented with 1 mM NR at time of transfection to minimize toxicity from ARM-SAM-TIR overexpression. Forty-eight hours after transfection, cells were harvested, pelleted by centrifugation at 1,000 rpm (Sorvall ST 16R centrifuge, Thermo Fisher), and washed once with cold PBS (0.01 M phosphate buffered saline NaCl 0.138 M; KCl 0.0027 M; pH 7.4). The cells were resuspended in PBS with protease inhibitors (Complete™ protease inhibitor cocktail, Roche product #11873580001) and cell lysates were prepared by sonication (Branson Sonifer 450, output=3, 20 episodes of stroke). The lysates were centrifuged (12,000×g for 10 min at 4° C.) to remove cell debris and the supernatants (containing ARM-SAM-TIR protein) were stored at −80° C. for later use in the in vitro ARM-SAM-TIR NADase assay (see below). Protein concentration was determined by the Bicinchoninic (BCA) method and used to normalize lysate concentrations.
The enzymatic assay was performed in a 384-well polypropylene plate in Dulbecco's PBS buffer in a final assay volume of 20 μL. ARM-SAM-TIR lysate with a final concentration of 5 μg/mL was pre-incubated with the respective compound at 1% DMSO final assay concentration over 2 hrs. at room temperature. The reaction was initiated by addition of 5 μM final assay concentration of NAD+ as substrate. After a 2 hrs. ambient temperature incubation, the reaction was terminated with 40 μL of stop solution of 7.5% trichloroacetic acid in acetonitrile. The NAD+ and ADPR concentrations were analyzed by a RapidFire High Throughput Mass Spectrometry System (Agilent Technologies, Santa Clara, CA) using an API4000 triple quadrupole mass spectrometer (AB Sciex Framingham, MA).
Compounds having an activity designated as “A” provided an IC50<50 nM; compounds having an activity designated as “B” provided an IC50 51-100 nM; compounds having an activity designated as “C” provided an IC50 101-500 nM; compounds having an activity designated as “D” provided an IC50 501-1000 nM; compounds having an activity designated as “E” provided an IC50>1000 nM.

An IC50 of 0.101 to 0.5 µM was found for `NC(=O)c1c(-c2ccnnc2)n[nH]c1NC(=O)CCc1cnc(Cl)c(F)c1` [Example 20, 5-(3-(6-Chloro-5-fluoropyridin-3-yl)propanamido)-3-(pyridazin-4-y1)-1H-pyrazole-4-carboxamide] in this work.
